Where “and” joins values, the source holds several entries; their conditions need not be identical. Equal values may be shown once. Toxic doses and inconclusive results are not listed. Cut-off read from the data, not from the text of the source: active = T/C of 150% or more; inactive = T/C below 125%.
Test system: L1210 leukemia ip in BDF1 mice, survival T/C
Assay: NCI In Vivo Anticancer Drug Screen. Data for tumor model L1210 Leukemia (intraperitoneal) in B6D2F1 (BDF1) mice
Settings: endpoint: mean survival time, higher = longer survival
In short: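 Value reflects the ratio of survival in compound-treated mice to survival in vehicle-treated controls, with both groups carrying the same transplanted tumor.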

[1] = dose: 100.0 mg/kg/injection, schedule: Q01DX009 (ip), vehicle: Klucel (hydroxypropylcellulose) (HPC)
[2] = dose: 100.0 mg/kg/injection, schedule: Q04DX003 (ip), vehicle: Klucel (hydroxypropylcellulose) (HPC)
[3] = dose: 200.0 mg/kg/injection, schedule: Q01DX009 (ip), vehicle: Klucel (hydroxypropylcellulose) (HPC)
[4] = dose: 200.0 mg/kg/injection, schedule: Q04DX003 (ip), vehicle: Klucel (hydroxypropylcellulose) (HPC)
[5] = dose: 400.0 mg/kg/injection, schedule: Q04DX003 (ip), vehicle: Klucel (hydroxypropylcellulose) (HPC)
[6] = dose: 100.0 mg/kg/injection, schedule: Q01DX009 (ip), vehicle: saline
[7] = dose: 200.0 mg/kg/injection, schedule: Q01DX009 (ip), vehicle: saline
[8] = dose: 400.0 mg/kg/injection, schedule: Q01DX009 (ip), vehicle: saline
[9] = dose: 100.0 mg/kg/injection, schedule: Q04DX002 (ip), vehicle: saline with Tween-80
[10] = dose: 200.0 mg/kg/injection, schedule: Q04DX002 (ip), vehicle: saline with Tween-80
[11] = dose: 400.0 mg/kg/injection, schedule: Q04DX002 (ip), vehicle: saline with Tween-80
[12] = dose: 100.0 mg/kg/injection, schedule: Q01DX001 (ip), vehicle: carboxymethylcellulose (CMC)
[13] = dose: 200.0 mg/kg/injection, schedule: Q01DX001 (ip), vehicle: carboxymethylcellulose (CMC)
[14] = dose: 400.0 mg/kg/injection, schedule: Q01DX001 (ip), vehicle: carboxymethylcellulose (CMC)
[15] = dose: 100.0 mg/kg/injection, schedule: Q01DX009 (ip), vehicle: saline with Tween-80
[16] = dose: 200.0 mg/kg/injection, schedule: Q01DX009 (ip), vehicle: saline with Tween-80
[17] = dose: 400.0 mg/kg/injection, schedule: Q01DX009 (ip), vehicle: saline with Tween-80

Measured: T/C

CCCCC(CC)COC(=O)/C=C/C(=O)OCC(CC)CCCC (stereo not drawn)
inactive: [1] 96 % of control | [2] 101 % of control | [3] 107 % of control | [4] 95 % of control | dose: 400.0 mg/kg/injection, schedule: Q01DX009 (ip), vehicle: Klucel (hydroxypropylcellulose) (HPC) 107 % of control | [5] 93 % of control

O=C(O)C(O)COc1ccc(Cl)cc1Cl (stereo not drawn)
inactive: [6] 92 % of control | dose: 100.0 mg/kg/injection, schedule: Q04DX003 (ip), vehicle: saline 93 % of control | [7] 107 % of control | [8] 102 % of control | dose: 400.0 mg/kg/injection, schedule: Q04DX003 (ip), vehicle: saline 102 % of control

CC(C)(C)S(=O)(=O)CCS(=O)(=O)C(C)(C)C
inactive: [6] 100 % of control | dose: 100.0 mg/kg/injection, schedule: Q04DX002 (ip), vehicle: Klucel (hydroxypropylcellulose) (HPC) 104 % of control | [9] 97 % of control | [7] 100 % of control | dose: 200.0 mg/kg/injection, schedule: Q04DX002 (ip), vehicle: Klucel (hydroxypropylcellulose) (HPC) 97 % of control | [10] 94 % of control | [8] 107 % of control | dose: 400.0 mg/kg/injection, schedule: Q04DX002 (ip), vehicle: Klucel (hydroxypropylcellulose) (HPC) 104 % of control | [11] 90 % of control

CC(C)C(CCN1CCCC1)(C(N)=O)c1cccc2ccccc12 (stereo not drawn)
inactive: dose: 50.0 mg/kg/injection, schedule: Q01DX009 (ip), vehicle: Klucel (hydroxypropylcellulose) (HPC) 112 % of control | [1] 105 % of control | [2] 98 % of control | [3] 112 % of control | [4] 95 % of control

c1ccc2oc(N3CCN(c4nc5ccccc5o4)CC3)nc2c1
inactive: [12] 102 % of control | [13] 91 % of control | [14] 88 % of control

Cc1cc(CCl)c(C)cc1CCl
inactive: dose: 25.0 mg/kg/injection, schedule: Q04DX003 (ip), vehicle: saline with Tween-80 96 % of control | dose: 50.0 mg/kg/injection, schedule: Q04DX003 (ip), vehicle: saline with Tween-80 90 % of control

CC(/C=N/NC(N)=S)=N\N=C(N)N
inactive: dose: 15.0 mg/kg/injection, schedule: Q01DX Z (ip), vehicle: carboxymethylcellulose (CMC) 98 % of control | dose: 30.0 mg/kg/injection, schedule: Q01DX Z (ip), vehicle: carboxymethylcellulose (CMC) 101 % of control | dose: 60.0 mg/kg/injection, schedule: Q01DX Z (ip), vehicle: carboxymethylcellulose (CMC) 98 % of control | dose: 120.0 mg/kg/injection, schedule: Q01DX Z (ip), vehicle: carboxymethylcellulose (CMC) 98 % of control

O=C(Nc1ccccc1)Nc1cccc(C(F)(F)F)c1
inactive: dose: 50.0 mg/kg/injection, schedule: Q01DX001 (ip), vehicle: carboxymethylcellulose (CMC) 104 % of control | [12] 102 % of control | [13] 107 % of control | [14] 109 % of control

O=C(O)C1OC1C(=O)O (stereo not drawn)
inactive: dose: 75.0 mg/kg/injection, schedule: Q01DX009 (ip), vehicle: saline with Tween-80 101 % of control | dose: 75.0 mg/kg/injection, schedule: Q04DX003 (ip), vehicle: saline 100 % of control | dose: 150.0 mg/kg/injection, schedule: Q01DX009 (ip), vehicle: saline with Tween-80 103 % of control | dose: 150.0 mg/kg/injection, schedule: Q04DX003 (ip), vehicle: saline 98 % of control | dose: 300.0 mg/kg/injection, schedule: Q01DX009 (ip), vehicle: saline with Tween-80 95 % of control | dose: 300.0 mg/kg/injection, schedule: Q04DX003 (ip), vehicle: saline 100 % of control

CC12CCC3c4ccc(Oc5ccc(N)cc5)cc4CCC3C1CCC2=O (stereo not drawn)
inactive: dose: 100.0 mg/kg/injection, schedule: Q01DX001 (sc), vehicle: steriod suspending solution 101 % of control | dose: 200.0 mg/kg/injection, schedule: Q01DX001 (sc), vehicle: steriod suspending solution 95 % of control | dose: 400.0 mg/kg/injection, schedule: Q01DX001 (sc), vehicle: steriod suspending solution 101 % of control

COc1cc([N+](=O)[O-])ccc1NC(=O)Nc1ccc(S(N)(=O)=O)cc1
inactive: dose: 100.0 mg/kg/injection, schedule: Q01DX001 (ip), vehicle: saline with Tween-80 98 % of control | [15] 103 % of control and 107 % of control | [9] 100 % of control and 102 % of control | dose: 200.0 mg/kg/injection, schedule: Q01DX001 (ip), vehicle: saline with Tween-80 90 % of control | [16] 92 % of control and 103 % of control | [10] 99 % of control and 86 % of control | dose: 400.0 mg/kg/injection, schedule: Q01DX001 (ip), vehicle: saline with Tween-80 91 % of control | [17] 94 % of control and 96 % of control | [11] 94 % of control

CCC(C)N1C(=O)CCC1=O (stereo not drawn)
inactive: dose: 150.0 mg/kg/injection, schedule: Q01DX001 (ip), vehicle: saline 101 % of control | dose: 300.0 mg/kg/injection, schedule: Q01DX001 (ip), vehicle: saline 101 % of control | dose: 600.0 mg/kg/injection, schedule: Q01DX001 (ip), vehicle: saline 101 % of control

CCN(CC)C(=O)Nc1ccc(C(=O)O)c(O)c1
inactive: [2] 95 % of control | [4] 90 % of control | [5] 90 % of control

CCCCC/C(C=O)=C\c1ccccc1
inactive: [15] 104 % of control | dose: 100.0 mg/kg/injection, schedule: Q04DX003 (ip), vehicle: saline with Tween-80 94 % of control | [16] 91 % of control | dose: 200.0 mg/kg/injection, schedule: Q04DX003 (ip), vehicle: saline with Tween-80 96 % of control | [17] 93 % of control | dose: 400.0 mg/kg/injection, schedule: Q04DX003 (ip), vehicle: saline with Tween-80 105 % of control

S=C(Nc1ccc(Cl)c(Cl)c1)SCc1ccc2c(c1)OCO2
inactive: dose: 37.5 mg/kg/injection, schedule: Q01DX009 (ip), vehicle: saline 120 % of control | dose: 75.0 mg/kg/injection, schedule: Q04DX003 (ip), vehicle: saline with Tween-80 101 % of control | dose: 150.0 mg/kg/injection, schedule: Q01DX009 (ip), vehicle: saline 102 % of control | dose: 150.0 mg/kg/injection, schedule: Q04DX003 (ip), vehicle: saline with Tween-80 104 % of control | dose: 300.0 mg/kg/injection, schedule: Q04DX003 (ip), vehicle: saline with Tween-80 123 % of control

C/C=C/C=C/COC(=O)CCCCCCCCC
inactive: dose: 100.0 mg/kg/injection, schedule: Q04DX002 (ip), vehicle: saline 100 % of control | dose: 200.0 mg/kg/injection, schedule: Q04DX002 (ip), vehicle: saline 121 % of control | dose: 400.0 mg/kg/injection, schedule: Q04DX002 (ip), vehicle: saline 108 % of control

COc1ccc2c(c1)CN(S(=O)(=O)c1ccc(C)cc1)c1ccccc1C2=O
inactive: [6] 89 % of control | [7] 96 % of control | [8] 89 % of control

Cn1c(N)c(N=Cc2ccncc2)c(=O)n(C)c1=O
inactive: dose: 50.0 mg/kg/injection, schedule: Q01DX001 (ip), vehicle: other 103 % of control | dose: 100.0 mg/kg/injection, schedule: Q01DX001 (ip), vehicle: other 92 % of control | dose: 200.0 mg/kg/injection, schedule: Q01DX001 (ip), vehicle: other 94 % of control | dose: 400.0 mg/kg/injection, schedule: Q01DX001 (ip), vehicle: other 97 % of control

From PubChem BioAssay AID248 (DTP/NCI, 2004)
